# Laboratory results: patent US10023592B2, “Bromodomain inhibitors” (Celgene Quanticel Research, Inc., priority 2013, dated 2018)
# What was measured:
# [1] = target: BRD4(BD1) (Homo sapiens (Human), UniProt O60885); experiment: In vitro enzyme inhibition assay (BRD4 AlphaScreen); assay type: binding; details: in vitro enzyme inhibition assay
# Procedure, shortened: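 AlphaScreen proximity readout, using streptavidin donor and Ni-chelate acceptor beads at 5 μg/mL final, monitors biotin-H4 tetraacetylated peptide interaction with purified His-tagged BRD4.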
# [2] = tested on: NCI-H460, human non-small cell lung cancer cells; experiment: Cell-MTS proliferation assay, NCI-H460; assay type: cell-based; details: Homo sapiens; Cell-MTS proliferation, NCI-H460 cells, 168 hr
# Procedure, shortened: (§1)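 Cells were seeded per 96-well at densities giving ~90% confluence by day 7 (Raji 15,000, HL-60 5,000, NCI-H460 3,000) and dosed 24 hr later with an 11-point dilution, 100 μM to 2.0 nM final. Seven-day MTS colorimetric read at OD490; IC50 from background-subtracted, DMSO-normalised values.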
# [3] = tested on: HL-60, human proleukemia cells; experiment: Cell-MTS proliferation assay, HL-60; assay type: cell-based; details: Homo sapiens; Cell-MTS proliferation, HL-60 cells, 168 hr
# Procedure, shortened: as §1
# [4] = tested on: Raji, human Burkitts lymphoma cells; experiment: Cell-MTS proliferation assay, Raji; assay type: cell-based; details: Homo sapiens; Cell-MTS proliferation, Raji cells, 168 hr
# Procedure, shortened: as §1
IC50 [1] [µM],IC50 [2] [µM],IC50 [3] [µM],IC50 [4] [µM],Structure (SMILES)
< 0.5,> 5,< 0.5,0.5 to 5,"CCS(=O)(=O)c1ccc(OC2CCC(F)(F)CC2)c(-c2cn(C)c(=O)c3cncn23)c1 [Example 373, 5-[2-(4,4-difluorocyclohexyl)oxy-5-ethylsulfonylphenyl]-7-methylimidazo[1,5-a]pyrazin-8-one]"
< 0.5,> 5,< 0.5,< 0.5,"CCS(=O)(=O)c1ccc(OC2CCCC2)c(-c2cn(C)c(=O)c3cncn23)c1 [Example 374, 5-(2-cyclopentyloxy-5-ethylsulfonylphenyl)-7-methylimidazo[1,5-a]pyrazin-8-one]"
< 0.5,> 5,< 0.5,0.5 to 5,"CCS(=O)(=O)c1ccc(Oc2ccc(F)cc2F)c(-c2cn(C)c(=O)c3cncn23)c1 [Example 376, 5-[2-(2,4-difluorophenoxy)-5-ethylsulfonylphenyl]-7-methylimidazo[1,5-a]pyrazin-8-one]"
< 0.5,> 5,< 0.5,< 0.5,"Cn1cc(-c2cc(S(C)(=O)=O)ccc2OCC2CC2)c2occc2c1=O [Example 377, 7-[2-(cyclopropylmethoxy)-5-methylsulfonylphenyl]-5-methylfuro[3,2-c]pyridin-4-one]"
< 0.5,0.5 to 5,< 0.5,< 0.5,"CCS(=O)(=O)c1ccc(OCC2CC2)c(-c2cn(C)c(=O)c3ccoc23)c1 [Example 378, 7-[2-(cyclopropylmethoxy)-5-ethylsulfonylphenyl]-5-methylfuro[3,2-c] pyridin-4-one]"
< 0.5,> 5,< 0.5,< 0.5,"CCS(=O)(=O)Nc1ccc(Oc2ccc(F)cc2F)c(-c2cn(C)c(=O)c3ccoc23)c1 [Example 379, N-[4-(2,4-difluorophenoxy)-3-(5-methyl-4-oxofuro[3,2-c]pyridin-7-yl)phenyl] ethanesulfonamide]"
< 0.5,> 5,< 0.5,< 0.5,"Cn1cc(-c2cc(NS(C)(=O)=O)ccc2Oc2ccc(F)cc2F)c2occc2c1=O [Example 380, N-[4-(2,4-difluorophenoxy)-3-(5-methyl-4-oxofuro[3,2-c]pyridin-7-yl)phenyl] methanesulfonamide]"
< 0.5,> 5,0.5 to 5,> 5,"Cn1cc(-c2cn(CS(C)(=O)=O)c(=O)cc2OCC2CC2)ccc1=O [Example 381, 4-(cyclopropylmethoxy)-5-(1-methyl-6-oxopyridin-3-yl)-1-(methylsulfonylmethyl)pyridin-2-one]"
< 0.5,> 5,< 0.5,0.5 to 5,"Cc1cc(-c2cn(CS(C)(=O)=O)c(=O)cc2OCC2CC2)cn(C)c1=O [Example 382, 5-[4-(cyclopropylmethoxy)-1-(methylsulfonylmethyl)-6-oxopyridin-3-yl]-1,3-dimethylpyridin-2-one]"
< 0.5,> 5,< 0.5,0.5 to 5,"Cn1cc(-c2cn(CS(C)(=O)=O)c(=O)cc2OCC2CC2)c2ccc(F)cc2c1=O [Example 383, 4-[4-(cyclopropylmethoxy)-1-(methylsulfonylmethyl)-6-oxopyridin-3-yl]-7-fluoro-2-methylisoquinolin-1-one]"
< 0.5,> 5,< 0.5,0.5 to 5,"Cn1cc(-c2cn(CS(C)(=O)=O)c(=O)cc2OCC2CC2)c2ccccc2c1=O [Example 384, 4-[4-(cyclopropylmethoxy)-1-(methylsulfonylmethyl)-6-oxopyridin-3-yl]-2-methylisoquinolin-1-one]"
< 0.5,> 5,< 0.5,< 0.5,"Cc1cc(-c2cn(CS(C)(=O)=O)c(=O)cc2Oc2ccc(F)cc2F)cn(C)c1=O [Example 385, 5-[4-(2,4-difluorophenoxy)-1-(methylsulfonylmethyl)-6-oxopyridin-3-yl]-1,3-dimethylpyridin-2-one]"
< 0.5,> 5,0.5 to 5,0.5 to 5,"Cn1cc(-c2cn(CS(C)(=O)=O)c(=O)cc2Oc2ccc(F)cc2F)ccc1=O [Example 386, 4-(2,4-difluorophenoxy)-5-(1-methyl-6-oxopyridin-3-yl)-1-(methylsulfonylmethyl)pyridin-2-one]"
< 0.5,> 5,< 0.5,< 0.5,"Cn1cc(-c2cn(CS(C)(=O)=O)c(=O)cc2Oc2ccc(F)cc2F)c2ccccc2c1=O [Example 387, 4-[4-(2,4-difluorophenoxy)-1-(methylsulfonylmethyl)-6-oxopyridin-3-yl]-2-methylisoquinolin-1-one]"
< 0.5,> 5,< 0.5,< 0.5,"CC#CCOc1ccc(S(C)(=O)=O)cc1-c1cc(C)c(=O)n(C)c1 [Example 388, 5-(2-but-2-ynoxy-5-methylsulfonylphenyl)-1,3-dimethylpyridin-2-one]"
< 0.5,> 5,< 0.5,0.5 to 5,"CC#CCOc1ccc(S(=O)(=O)CC)cc1-c1cc(OC)c(=O)n(C)c1 [Example 389, 5-(2-but-2-ynoxy-5-ethylsulfonylphenyl)-3-methoxy-1-methylpyridin-2-one]"
< 0.5,> 5,< 0.5,0.5 to 5,"CCS(=O)(=O)c1ccc(OCC#CC2CC2)c(-c2cc(OC)c(=O)n(C)c2)c1 [Example 391, 5-[2-(3-cyclopropylprop-2-ynoxy)-5-ethylsulfonylphenyl]-3-methoxy-1-methylpyridin-2-one]"
< 0.5,> 5,< 0.5,< 0.5,"CCS(=O)(=O)c1ccc(Nc2ccc(F)cc2F)c(-c2cc(C)c(=O)n(C)c2)c1 [Example 396, 5-[2-(2,4-difluoroanilino)-5-ethylsulfonylphenyl]-1,3-dimethylpyridin-2-one]"
< 0.5,> 5,< 0.5,< 0.5,"CCS(=O)(=O)c1ccc(NC2CCC(F)(F)CC2)c(-c2cc(C)c(=O)n(C)c2)c1 [Example 397, 5-[2-[(4,4-difluorocyclohexyl)amino]-5-ethylsulfonylphenyl]-1,3-dimethylpyridin-2-one]"
< 0.5,> 5,< 0.5,0.5 to 5,"Cc1cc(-c2cc(S(C)(=O)=O)ccc2Nc2ccc(F)cc2F)cn(C)c1=O [Example 398, 5-[2-(2,4-difluoroanilino)-5-methylsulfonylphenyl]-1,3-dimethylpyridin-2-one]"
< 0.5,> 5,< 0.5,< 0.5,"CCS(=O)(=O)c1ccc(OCC2CC2)c(-c2cc(OC)c(=O)n(C)c2)c1 [Example 399, 5-[2-(cyclopropylmethoxy)-5-ethylsulfonylphenyl]-3-methoxy-1-methylpyridin-2-one]"
< 0.5,> 5,< 0.5,< 0.5,"COc1cc(-c2cc(CS(C)(=O)=O)ccc2Oc2ccc(F)cc2F)cn(C)c1=O [Example 400, 5-[2-(2,4-difluorophenoxy)-5-(methylsulfonylmethyl)phenyl]-3-methoxy-1-methylpyridin-2-one]"
< 0.5,> 5,< 0.5,0.5 to 5,"Cc1cc(-c2cc(S(C)(=O)=O)ccc2O[C@H]2CC[C@H](O)CC2)cn(C)c1=O [Example 401, 5-[2-(4-hydroxycyclohexyl)oxy-5-methylsulfonylphenyl]-1,3-dimethylpyridin-2-one]"
< 0.5,> 5,< 0.5,< 0.5,"CCS(=O)(=O)Nc1ccc(Oc2ccc(F)cc2F)c(-c2cc(SC)c(=O)n(C)c2)c1 [Example 402, N-[4-(2,4-difluorophenoxy)-3-(1-methyl-5-methylsulfanyl-6-oxopyridin-3-yl)phenyl]ethanesulfonamide]"
< 0.5,> 5,< 0.5,> 5,"Cc1cc(-c2cc(S(C)(=O)=O)ccc2O[C@H]2CC[C@H](N)CC2)cn(C)c1=O [Example 404, 5-[2-(trans-4-aminocyclohexyl)oxy-5-methylsulfonylphenyl]-1,3-dimethylpyridin-2-one]"
< 0.5,> 5,< 0.5,< 0.5,"Cc1cc(-c2cc(S(C)(=O)=O)ccc2OC2CCC(F)(F)CC2)cn(C)c1=O [Example 415, 5-[2-(4,4-difluorocyclohexyl)oxy-5-methylsulfonylphenyl]-1,3-dimethylpyridin-2-one]"
< 0.5,> 5,< 0.5,< 0.5,"CCS(=O)(=O)c1ccc(NC2CCCC2)c(-c2cc(C)c(=O)n(C)c2)c1 [Example 416, 5-[2-(cyclopentylamino)-5-ethylsulfonylphenyl]-1,3-dimethylpyridin-2-one]"
< 0.5,> 5,< 0.5,< 0.5,"Cc1cc(-c2cc(S(C)(=O)=O)ccc2NC2CCCC2)cn(C)c1=O [Example 417, 5-[2-(cyclopentylamino)-5-methylsulfonylphenyl]-1,3-dimethylpyridin-2-one]"
< 0.5,> 5,< 0.5,0.5 to 5,"Cn1cc(-c2cc(CS(C)(=O)=O)ccc2OCC(F)(F)F)cc(Cl)c1=O [Example 418, 3-chloro-1-methyl-5-[5-(methylsulfonylmethyl)-2-(2,2,2-trifluoroethoxy)phenyl]pyridin-2-one]"
